Active and inactive are the calls of the source. The rule behind the calls is not given here.
Assays:
[1] = biological target: Human immunodeficiency virus type 1 reverse transcriptase (Human immunodeficiency virus 1, UniProt Q72547); experiment: Inhibition of recombinant wildtype HIV-1 reverse transcriptase using r(A)350 as template and d(T)16 as primer preincubated with compound for 1 hrs followed by template/primer addition and measured after 30 mins by picogreen based plate reader analysis
[2] = test system: Human immunodeficiency virus 1; experiment: Antiviral activity against wildtype HIV-1 IIIb infected in human MT2 cells assessed as protection of viral infected cells; assay type: functional, organism-based; details: for EC50: Human immunodeficiency virus 1, IIIB
[3] = test system: MT2; experiment: Cytotoxicity against human MT2 cells assessed as inhibition of cell growth; assay type: toxicity, cell-based
[4] = biological target: Human immunodeficiency virus type 1 reverse transcriptase (Human immunodeficiency virus 1) (UniProt Q72547); experiment: Time dependent inhibition of recombinant wildtype HIV-1 reverse transcriptase at 0.1 to 1000000 nM; details: dose 0.1-1e+06 nM, time 1-48 hrs

SMILES | IC50 [1] | Activity [2] | CC50 [3] | EC50 [2] | TDI [4]
N#Cc1ccc(Nc2ncc(Cc3ccc(-c4ccccc4)cc3)o2)cc1 | > 100000 nM | inactive | 80 µM | – | –
N#Cc1ccc(-c2cc(F)c(Cc3cnc(Nc4ccc(C#N)c(Cl)c4)o3)c(F)c2)cc1 | < 10 nM | – | 9.5 µM | 16 nM | –
COc1ccc(-c2ccc(Cc3cnc(Nc4ccc(C#N)cc4)o3)cc2)cc1 | > 10000 nM | inactive | 27 µM | – | –
N#Cc1ccc(Nc2ncc(Cc3c(F)cc(-c4ccc(O)cc4)cc3F)o2)cc1 | > 1000 nM | – | 15 µM | 5500 nM | –
C=Cc1ccc(-c2cc(F)c(Cc3cnc(Nc4ccc(C#N)c(Cl)c4)o3)c(F)c2)cc1 | 17 nM | – | 30 µM | 19 nM | –
N#Cc1ccc(Nc2ncc(Cc3c(F)cc(-c4ccc(OS(=O)(=O)F)cc4)cc3F)o2)cc1Cl | 3000 nM | – | 25 µM | 4300 nM | inactive
N#Cc1ccc(Nc2ncc(Cc3c(F)cc(-c4ccc(OS(=O)(=O)F)cc4)cc3F)o2)cc1 | > 20000 nM | inactive | 30 µM | – | inactive
N#Cc1ccc(Nc2ncc(Cc3c(F)cc(-c4ccccc4)cc3F)o2)cc1 | 20 nM | – | 59 µM | 170 nM | –
N#Cc1ccc(Nc2ncc(Cc3c(F)cccc3F)o2)cc1Cl | – | – | – | 6.2 nM | –
N#Cc1ccc(Nc2ncc(Cc3c(F)cc(-c4ccc(C#N)cc4)cc3F)o2)cc1 | 11 nM | – | 9 µM | 30 nM | –
N#Cc1ccc(Nc2ncc(Cc3c(F)cc(-c4ccc(O)cc4)cc3F)o2)cc1Cl | 280 nM | – | 15 µM | 1300 nM | –
N#Cc1ccc(Nc2ncc(Cc3c(F)cc(-c4ccc(C5CO5)cc4)cc3F)o2)cc1Cl (configuration not stated) | 440 nM | – | 25 µM | 610 nM | inactive

Source: ChEMBL document CHEMBL5252605, “Design, synthesis, and biological testing of biphenylmethyloxazole inhibitors targeting HIV-1 reverse transcriptase” (Bioorg Med Chem Lett, 2023)
